SMILES strings stand for the structures. Read-outs that look alike come from different tables or passages of the source.

The nature of series [1]: Equilibrium dialysis, fraction unbound in plasma. The class given is in vitro ADME, human. The settings on record: for fraction unbound at 16 h: pH 7.4, 16 h equilibrium dialysis. The method, then: Equilibrium dialysis was employed to measure the fraction unbound of analytes in plasma, brain, and brain tumor tissue homogenates using 96-well DispoEquilibrium Dialyzer plates with a 10 kDa cut-off regenerated cellulose membrane. Dialysis was performed using 180 μL of human plasma or tissue homogenate against an equal volume of PBS (pH 7.4) in a dual-plate rotator (Harvard Apparatus, Holliston, MA, USA). Equilibrium time was initially optimized by analyzing samples after 2, 4, 6, 8, 16, and 24 h of dialysis at concentrations of 20 and 200 nM in human plasma and brain homogenate. The dialysates were collected and processed as described in Sections 2.3.2 and 2.3.3. The recovery of analytes was calculated as the ratio of analyte concentration after dialysis (sum of concentrations found in PBS and matrix fractions) to the total concentration to ensure the reliability and reproducibility of the assay. The experiments were repeated at least three times, and each sample in triplicate and average fraction unbound values were determined.
The fraction unbound in plasma (fu, plasma) and tissue homogenate (fu, hom) was evaluated as the analyte concentration ratio of post-dialysis PBS (cu) to post-dialysis plasma (cp, Eq. (1)) or homogenate (chom, Eq. (2)).(1) fu,plasma =cu/cp (2) fu,hom =cu/chom
(§1) Unbound drug levels in the actual plasma and brain tumor tissue were measured using dialysis for 16 h to reach equilibrium. The mean of fraction unbound values determined in five patient samples was calculated.
In general terms: Equilibrium dialysis compares concentrations on both sides of a semipermeable membrane.

Series [2] can be described thus: Tumor-to-plasma partition coefficients (Kp, Kp,uu) in GBM patients. It is filed as in vivo, human. The settings on record: for Unbound tumor-to-plasma partition coefficient (Kp,uu), fold lower than abemaciclib: both GBM regions, five patients. As for the experimental part: Blank brain and clinical brain tumor tissue homogenates were prepared at 1:9 (m/V) ratio with PBS. The samples were homogenized at a speed of 6.00 m/s for 40 s for three cycles using a Bead Ruptor Elite homogenizer (Omni International, Kennesaw, GA, USA). Plasma was used as a surrogate matrix when preparing calibration curves for brain and brain tumor homogenates and CSF as well as for the PBS fraction after sample dialysis. To minimize matrix differences, all plasma samples were spiked with PBS, while all non-plasma samples were spiked with plasma. Extraction of the analyte and IS was facilitated by protein precipitation using methanol-containing IS precipitation solution. Samples (70 μL) spiked with PBS or plasma were precipitated using 400 μL of IS precipitation solution. After centrifugation at 12,000 r/min for 10 min at 4 °C, the supernatant was transferred for LC-MS/MS analysis.
as §1
The validated bioanalytical method was employed to investigate analytes pharmacokinetics in the plasma, brain tumor, and CSF in GBM patients (ClinicalTrials.gov identifier: NCT04391595). The protocol was reviewed and approved by the Institutional Review Board of the Barrow Neurological Institute, St. Joseph's Hospital and Medical Center (Phoenix, AZ, USA). All patients enrolled in the trial provided written informed consent. […] Blood, CSF, and GBM tissue (including gadolinium-contrast enhancing and non-enhancing regions) samples were obtained intra-operatively from each patient on the […] on the planned operation day. Blood was centrifuged at 4 °C and 3,000 r/min for 10 min; plasma was subsequently collected. Brain tumors were resected 7–9 h after the last dose was administered. Once resected, the tissue samples were rinsed with PBS, paper dried, and freshly frozen in liquid nitrogen. […]

A short description of series [3]: Pilot pharmacokinetic studies in mice (blood-brain barrier). The class given is in vivo.
Details of series [4]: method as in investigational brochures. The settings on record: ref investigational brochures; cited from earlier work.
The mark [5] stands for this setting: human, plasma of five GBM patients, read-out: Fraction unbound (fu), Plasma (patients).
Where [6] appears, read: pooled human plasma spiked at 20 and 200 nM, read-out: Fraction unbound (fu), Plasma (pooled).

For the compound `CCN1CCN(Cc2ccc(Nc3ncc(F)c(-c4cc(F)c5nc(CO)n(C(C)C)c5c4)n3)nc2)CC1` [M20], the free fraction (fraction unbound) (as a rule, free concentration divided by total concentration) at 16 h is 0.023 in series [1] (setting [5]) and 0.024 in series [1] (setting [6]). For the same compound, in series [2], the “Unbound tumor-to-plasma partition coefficient (Kp,uu), fold lower than abemaciclib” value is reported as “at least 3 fold”.

Turning to `Cc1nc2c(F)cc(-c3nc(Nc4ccc(CN5CCNCC5)cn4)ncc3F)cc2n1C(C)C` [M2], the values for the fraction unbound at 16 h in series [1] (setting [5]) and in series [1] (setting [6]) were 0.045 and 0.052, respectively. Besides, the “Unbound tumor-to-plasma partition coefficient (Kp,uu), fold lower than abemaciclib” value in series [2] is given as “at least 3 fold”. Besides, the “Total tumor-to-plasma partition coefficient (Kp), fold higher than M20” value in series [2] (gadolinium-contrast enhancing and non-enhancing GBM regions) is greater than 2 fold.

For `Cn1nccc1Nc1nccc(-c2cc3c(s2)C(C)(C)N(CCN2CCOCC2)C3=O)n1` [LY3214996], the fraction unbound at 16 h in series [1] (setting [5]) worked out at 0.406; in series [1] (setting [6]) it was 0.372. The “Plasma protein binding (in words)” value in series [1] (pooled human plasma) is listed as “modest plasma protein binding”. For the same compound, the “Crossing of the blood-brain barrier” value in series [3] is on record as “may cross the blood-brain barrier”. For the same compound, the “pKa (strongest basic)” value in series [4] is given as 6.21.

Source of the values: publication PMC9463526 (Journal of Pharmaceutical Analysis, 2022).
